Results from US7279161B2, “Factor IX/factor IXa activating antibodies and antibody derivatives” (Baxter Aktiengesellschaft, priority 1999, dated 2007).

How the values were obtained:
human FIXa = target: T1, human FIXa (Homo sapiens, UniProt P00740); assay: Chromogenic FVIII-like (FXa generation) assay with human FIXa added; format: biochemical
T1 construct: with (+) and without (−) addition of 50 ng human FIXaβ; purchased ERL (Enzyme Research Laboratories)
How it was run: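 FXa generation at 37 °C with bovine FIXa/FX plus phospholipids, 25 mM CaCl2 stock, S-2222 substrate and thrombin inhibitor I-2581; 50 ng human FIXa added per reaction. Absorbance at 405 and 490 nm read from 5 min to 2 h against a reagent blank.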

FVIII inhibitor plasma = assay: aPTT based one stage clotting assay in FVIII inhibitor plasma; format: biochemical; details: inhibitor plasma 8.1 Bethesda Units per ml
Method: […] […] […] After a 4 minute incubation, the reaction was started by the addition of 100 μl CaCl2 (25 mM). To ensure equal conditions, the experiments employing FVIII deficient plasma and FVIII inhibitor plasma were done side by side.
To assay for the procoagulant activity of peptide A1/3 in FVIII inhibitor plasma the following experiment was carried out. We performed a standard aPTT based one stage clotting assay, but instead of FVIII deficient plasma we employed FVIII inhibitor plasma.

T1 sequence (P00740 47-191 limits assumed): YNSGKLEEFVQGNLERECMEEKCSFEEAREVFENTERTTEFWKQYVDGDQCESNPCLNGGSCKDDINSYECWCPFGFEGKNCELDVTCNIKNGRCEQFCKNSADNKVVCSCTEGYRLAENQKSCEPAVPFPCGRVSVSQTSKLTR
T1 sequence (P00740 227-461 limits assumed): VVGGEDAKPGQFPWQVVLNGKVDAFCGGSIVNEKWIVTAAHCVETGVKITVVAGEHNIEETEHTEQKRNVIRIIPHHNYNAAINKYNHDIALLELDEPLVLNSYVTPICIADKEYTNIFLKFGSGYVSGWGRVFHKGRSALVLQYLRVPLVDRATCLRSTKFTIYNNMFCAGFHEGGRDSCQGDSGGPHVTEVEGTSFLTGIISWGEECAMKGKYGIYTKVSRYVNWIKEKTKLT

## RRREGGGYYVNWYFDRRR [A1/3]
Human FIXa; 2.9 nM human FIXa
  chromogenic FVIII-like activity (FXa generation): readily measurable FXa generation
Human FIXa; 12 μM peptide, 2.3 nM human FIXa
  chromogenic activity: virtually unchanged
Human FIXa; 24 μM, with vs without 2.3 nM human FIXa
  chromogenic FVIII-like activity: the reaction takes place only in the presence of human FIXa
FVIII inhibitor plasma; 1.25 μM, 2.2 nM FIXa
  average clotting time: 91 s
FVIII inhibitor plasma; 1.25 μM, 2.2 nM FIXa, duplicate 1
  clotting time: 91.3 s
FVIII inhibitor plasma; 1.25 μM, 2.2 nM FIXa, duplicate 2
  clotting time: 91.4 s
FVIII inhibitor plasma; 1.25 μM, w/o FIXa
  average clotting time: 104 s
FVIII inhibitor plasma; 1.25 μM, w/o FIXa, duplicate 1
  clotting time: 104.5 s
FVIII inhibitor plasma; 1.25 μM, w/o FIXa, duplicate 2
  clotting time: 104.3 s
FVIII inhibitor plasma; 2.5 μM, 2.2 nM FIXa
  average clotting time: 90 s
FVIII inhibitor plasma; 2.5 μM, 2.2 nM FIXa, duplicate 1
  clotting time: 90.2 s
FVIII inhibitor plasma; 2.5 μM, 2.2 nM FIXa, duplicate 2
  clotting time: 90.5 s
FVIII inhibitor plasma; 2.5 μM, w/o FIXa
  average clotting time: 106 s
FVIII inhibitor plasma; 2.5 μM, w/o FIXa, duplicate 1
  clotting time: 106.1 s
FVIII inhibitor plasma; 2.5 μM, w/o FIXa, duplicate 2
  clotting time: 105.3 s
FVIII inhibitor plasma; 5 μM, 2.2 nM FIXa
  average clotting time: 82 s
FVIII inhibitor plasma; 5 μM, 2.2 nM FIXa, duplicate 1
  clotting time: 81 s
FVIII inhibitor plasma; 5 μM, 2.2 nM FIXa, duplicate 2
  clotting time: 82 s
FVIII inhibitor plasma; 5 μM, w/o FIXa
  average clotting time: 101 s
FVIII inhibitor plasma; 5 μM, w/o FIXa, duplicate 1
  clotting time: 101.5 s
FVIII inhibitor plasma; 5 μM, w/o FIXa, duplicate 2
  clotting time: 101.1 s
FVIII inhibitor plasma; 7.5 μM, 2.2 nM FIXa
  average clotting time: 70 s
FVIII inhibitor plasma; 7.5 μM, 2.2 nM FIXa, duplicate 1
  clotting time: 68.8 s
FVIII inhibitor plasma; 7.5 μM, 2.2 nM FIXa, duplicate 2
  clotting time: 70.9 s
FVIII inhibitor plasma; 7.5 μM, w/o FIXa
  average clotting time: 93 s
FVIII inhibitor plasma; 7.5 μM, w/o FIXa, duplicate 1
  clotting time: 93.7 s
FVIII inhibitor plasma; 7.5 μM, w/o FIXa, duplicate 2
  clotting time: 92.7 s
FVIII inhibitor plasma; 10 μM, 2.2 nM FIXa
  average clotting time: 62 s
FVIII inhibitor plasma; 10 μM, 2.2 nM FIXa, duplicate 1
  clotting time: 61.3 s
FVIII inhibitor plasma; 10 μM, 2.2 nM FIXa, duplicate 2
  clotting time: 61.8 s
FVIII inhibitor plasma; 10 μM, w/o FIXa
  average clotting time: 88 s
FVIII inhibitor plasma; 10 μM, w/o FIXa, duplicate 1
  clotting time: 88.4 s
FVIII inhibitor plasma; 10 μM, w/o FIXa, duplicate 2
  clotting time: 87.9 s
FVIII inhibitor plasma; 12.5 μM, 2.2 nM FIXa
  average clotting time: 61 s
FVIII inhibitor plasma; 12.5 μM, 2.2 nM FIXa, duplicate 1
  clotting time: 61 s
FVIII inhibitor plasma; 12.5 μM, 2.2 nM FIXa, duplicate 2
  clotting time: 60.2 s
FVIII inhibitor plasma; 12.5 μM, w/o FIXa
  average clotting time: 86 s
FVIII inhibitor plasma; 12.5 μM, w/o FIXa, duplicate 1
  clotting time: 85.8 s
FVIII inhibitor plasma; 12.5 μM, w/o FIXa, duplicate 2
  clotting time: 85.3 s
